Structures can show the parent of a compound that is named as a salt.
Columns and labels:
anesthetized rats = test: Anesthetized rat spirometry screening assay (ventilatory activity, minute volume); type: in vivo; details: 0.3 mg/kg IV bolus, increase in minute volume (VE), read-out: VE % Inc @ 0.3 mg/kg IV
How it was run: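 Urethane-anesthetized (1.5 g/kg i.v.) rats with tracheal cannula to pneumotachometer; minute volume derived from respiratory rate × tidal volume. Compounds given as i.v. bolus at 0.1 and/or 0.3 and/or 3 mg/kg, monitored at least 6 min; data as 30 s averages.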

[1] = test system: anesthetized supine rats with spontaneous obstructive apneas; test: Spontaneous obstructive apnea model; type: in vivo, rat
Description: Two rodent models of obstructive apnea were used: one that modeled spontaneous obstructions (spontaneous obstructive apnea model) which become progressively worse over time, and another (evoked obstructive apnea model) where the investigator retained control over the variables that define OSA severity, such as apnea frequency (f OA) and apnea duration (OA t).
The majority of studies were conducted using the spontaneous obstructive apnea model, where rats were positioned in dorsal recumbency (supine), and permitted to breathe spontaneously on room air. Air flow was measured continuously by whole-body plethysmography. […] OA were defined as periods of no air flow for more than 2 respiratory cycles accompanied by efforts to breathe (e.g., increased transthoracic esophageal inspiratory pressure). After neck flexion, eupnea became increasingly interrupted by clusters of upper airway obstructions (f OA 30±3 hr^−1 (mean±SEM), range: 13 to 94 hr^−1; OA t 11±3 s, range: 6 to 15 s). OA severity was further quantified by the peak change in hemoglobin oxygen saturation during an obstruction (ΔSpO2: −20±1%, range: −11 to −31%). Clustered OAs were often separated by long periods of eupneic breathing, which presumably returned when activation of a relevant afferent/effector reflex (e.g., chemoreceptor driven increased motor drive to the genioglossus muscle) reached a threshold necessary to reestablish a patent upper airway.
All animal experiments were performed according to protocols approved by the Institutional Animal Care and Use Committee (IACUC) at Galleon Pharmaceuticals, Inc. All experimental procedures were performed under general anesthesia. All experiments were non-survival procedures and animals were euthanized at the conclusion of the experiment prior to the animal recovering from anesthesia. Two rodent models of obstructive apnea were used, one that modeled spontaneous obstructions that become progressively worse over time (Spontaneous Obstructive Apnea Model), and another where the investigator retained control over the parameters that defined OSA severity, such as f OA, and OA t, and by controlling these directly also controlling of the magnitude of oxy-hemoglobin desaturation (Evoked Obstructive Apnea Model).
Rats were initially anesthetized in a rodent anesthesia induction chamber using 3% (dial setting) isoflurane in 97% oxygen (O2) for surgical instrumentation. When rats had become recumbent they were removed from the chamber and placed in dorsal recumbency (supine) on a heating pad. Anesthesia was maintained with 2% isoflurane in 98% oxygen and rats were permitted to breathe spontaneously on room air. After instrumentation, isoflurane was slowly discontinued and urethane (1.5 to 1.8 g/kg, IV) administered to maintain anesthesia without interruption. Supplemental oxygen was discontinued at this time.
The femoral artery was cannulated to permit continuous recording of arterial blood pressure and intermittent sampling of blood for pH and blood gas analyses, and single time point quantification of test article plasma concentrations. The femoral vein was cannulated to permit test compound administration and fluid support. The arterial cannula was connected to a heparinized saline filled pressure transducer. The arterial pressure waveforms were sampled at 2K/second and band-pass filtered between 0-1000 Hz. […]

CCCNc1nc(NC)nc2c(NCC(C)(C)O)nc(NC)nc12 [Compound 31a, 1-(2,6-Bis-methylamino-8-propylamino-pyrimido[5,4-d]pyrimidin-4-ylamino)-2-methyl-propan-2-ol Hydrochloride]
change in vivo at 0.3 mg/kg (anesthetized rats): 69% | SpO2 desaturations ([1]; FIG. 18, model not named in the legend): reduction | frequency of obstructive apneas (OA) ([1]; FIG. 19, model not named in the legend): reduction | arterial oxygen content deficit ([1]; FIG. 20, model not named in the legend): reduction | upper airway (total genioglossus EMG amplitude) response to spontaneous obstructive apneas ([1]; FIG. 22): increase | upper airway response (genioglossus activity) to spontaneous obstructive apneas ([1]; IV infusion, FIG. 23): dose-dependently increases
